Molecules are shown by their SMILES.

For one data set, the system named is Heliothis virescens. Put plainly: Effect on the egg-larval stage of Heliothis virescens. The data set is classed as in vivo. The following applies: 144 h, read-out: mortality of eggs and any larvae hatched from them. The procedure: Effect on the Egg-Larval Stage of Heliothis virescens
A Petri dish whose bottom was covered with filter paper and which contained approx. 5 ml of nutrient medium was prepared. Filter paper sections containing approx. 30 24-hour-old eggs of the tobacco budworm (Heliothis virescens) were immersed for 5 seconds into an aqueous solution of the formulated preparation to be tested and subsequently placed in the Petri dish. A further 200 μl of the aqueous solution were distributed over the nutrient medium. After the Petri dish had been sealed, it was stored in a controlled-environment cabinet at approx. 25° C. After 6 days' storage, the mortality of the preparation on the eggs and any larvae hatched from them was determined. At a concentration of 300 ppm (based on the active substance content), a 90-100% mortality was caused by the preparations of Examples 1, 2, 3, 4, 5, 6, 7, 8, 14, 17, 21, 22, 23, 34, 35, 39, 40, 43, 44, 106.

Data set [1] concerns Diabrotica undecimpunctata. Put plainly: Effect on the corn budworm Diabrotica undecimpunctata (L2 larvae, soil application). The following applies: for mortality at 300 ppm: Diabrotica undecimpunctata, soil, 120 h, read-out: mortality of the test animals; for mortality of the test animals: 300 ppm (based on active substance content), 1 ml pipetted onto soil, L2 larvae, after 5 days at 21° C. In kind it is in vivo. The protocol:
Effect on the Corn Budworm Diabrotica undecimpunctata
Maize seed was pregerminated for 6 hours while submerged in water, then placed into 10-ml glass tubes and covered with 2 ml of soil in each case. After 1 ml of water had been added, the plants remained in the glass tubes at 21° C. until plant length was approx. 3 cm. 10 L2 larvae of the corn budworm (Diabrotica undecimpunctata) were then introduced into each tube on the soil. Two hours later, 1 ml of an aqueous solution of the formulated preparation to be tested were pipetted onto the soil surface in the tubes. After storage for 5 days under laboratory conditions at 21° C., the soil and root sections were examined for live Diabrotica larvae and the mortality was determined. At a concentration of 300 ppm (based on the active substance content), a 100% mortality of the test animals employed was shown by the preparations of Example 2, 3, 5, 9, 19, 39.

Another data set concerns Tetranychus urticae. As to the kind of experiment: Effect on the spider mites Tetranychus urticae (spray on infested bean plants). In kind it is in vivo. The following applies: 168 h, read-out: mortality of all mite stages. The protocol: Effect on the Spider Mites Tetranychus urticae
Bean plants (Phaseolus vulgaris) which were severely infested with a complete population of spider mites (Tetranychus urticae) were sprayed to runoff point with an aqueous solution of the formulated preparation to be tested. The mortality of all mite stages was determined after 7 days. At a concentration of 300 ppm (based on active substance content), a 90-100% mortality was shown by the preparations of Examples 1, 2, 3, 4, 7, 8, 9, 14, 18, 21, 31, 40, 41, 43, 44, 47, 51, 106, 152 and 153.

The test system of the next data set is Aphis fabae. As to the kind of experiment: Effect on the aphid Aphis fabae (spray on infested field beans). The following applies: 72 h, read-out: mortality of the aphids. In kind it is in vivo. The protocol: Effect on the Aphid Aphis fabae
Field beans (Vicia faba) which were densly populated with the black bean aphid (Aphis fabae) were sprayed to runoff point with an aqueous solution of the formulated preparation to be tested. The mortality of the aphids was determined after 3 days. At a concentration of 300 ppm (based on the active substance content), a 90-100% mortality was shown by the preparations of Examples 1, 2, 3, 4, 7, 8, 152.

Another data set has as its system Lucilia cuprina. Put plainly: Effect on the larvae of the copperbottle Lucilia cuprina (treated nutrient medium). The data set is classed as in vivo. The following applies: for mortality at 100 ppm: Lucilia cuprina, 72 h, read-out: mortality in the fly larvae; for mortality in the fly larvae: 100 ppm in larval nutrient medium of ground mutton, monitored over 72 hours. The procedure: Effect on the Larvae of the Copperbottle Lucilia cuprina
In a sample container, 20 recently hatched larvae of the copperbottle Lucilia cuprina were placed on a larval nutrient medium of ground mutton which contained the test substance in a concentration of 100 ppm. Larval growth on the nutrient medium is monitored over 72 hours up to larva 3. At a concentration of 100 ppm (based on the active substance content), a 100% mortality in the fly larvae employed was shown by the preparations of Examples 2, 3, 4, 5, 105, 106.

The next data set deals with Ctenocephalides felis. As to the kind of experiment: Effect on developmental stages of the cat flea Ctenocephalides felis (treated larval medium). The data set is classed as in vivo. The following applies: 1000 ppm in larval nutrient medium, approx. 30 flea eggs, read-out: mortality (hatching of flea larvae and development into pupae and adult fleas). From the text:
Effect on Developmental Stages of the Cat Flea Ctenocephalides felis
The larval nutrient medium of the cat flea, composed of equal parts of blood meal and quartz sand, was admixed with the test substance at a concentration of 1000 ppm. Approx. 30 flea eggs freshly obtained from a breeding colony were transferred onto the medium. To assess the affect of the preparation, hatching of the flea larvae and their development into pupae and adult fleas was observed. A mortality of 100% was caused by the test substances of Examples 2, 3 and 4.

For a further data set, the system named is Spodoptera litoralis. Put plainly: Effect on the butterfly larva Spodoptera litoralis (L4 larvae, Petri dish spray). The data set is classed as in vivo. The following applies: 96 h, read-out: larval mortality. The protocol: Effect on the Butterfly Larva Spodoptera litoralis
Ten L4 larvae of the Egyptian cotton leafworm (Spodoptera litoralis) were introduced into a Petri dish whose bottom was covered with filter paper and contained approx. 5 ml of nutrient medium. Filter paper, nutrient paper and the larvae which had been introduced were then sprayed with an aqueous solution of the formulated preparation to be tested. The Petri dish was subsequently sealed with a lid. After 4 days' storage at approx. 23° C., the effect of the preparation on the larvae was determined. At a concentration of 300 ppm (based on the active substance content), a 90-100% larval mortality was caused by the preparations of Examples 3, 4, 22, 105, 106.

For the molecule `CCSc1ccc(-c2ccc(C3COC(c4c(F)cccc4F)=N3)cc2)cn1` (stereo not shown) [Example 39, 2-(2,6-Difluorophenyl)-4-[4-(2-ethylthiopyridin-5-yl)phenyl]oxazoline], the results for the mortality at 300 ppm (in the data set with Heliothis virescens; in data set [1]) were 90 to 100% and 100%, respectively.
On to `CC(C)COc1ccc(-c2ccc(C3COC(c4c(F)cccc4F)=N3)cc2)cn1` (stereo not shown) [Example 8, 2-(2,6-Difluorophenyl)-4-[4-(2-isobutyloxypyridin-5-yl)phenyl]oxazoline], for which the mortality at 300 ppm in the data set on Tetranychus urticae, in the data set on Aphis fabae and in the data set on Heliothis virescens was 90 to 100% in each case.
Turning to `Fc1cccc(F)c1C1=NC(c2ccc(-c3ccc(OCC(F)(F)F)nc3)cc2)CS1` (stereo not shown) [Example 19, 2-(2,6-Difluorophenyl)-4-[4-(2-trifluoroethoxypyridin-5-yl)phenyl]thiazoline], the mortality at 300 ppm in data set [1] is 100%.
Take `CCOc1ccc(-c2ccc(C3COC(c4c(F)cccc4F)=N3)cc2)cn1` (stereo not shown) [Example 2, 2-(2,6-Difluorophenyl)-4-[4-(2-ethoxypyridin-5-yl)phenyl]oxazoline]: the mortality at 300 ppm in the data set with Tetranychus urticae is 90 to 100%; with Aphis fabae, 90 to 100%; in the data set on Heliothis virescens, 90 to 100%; in data set [1], 100%. Moreover, the mortality at 100 ppm in the data set on Lucilia cuprina was 100%. Besides, the mortality at 1000 ppm with Ctenocephalides felis worked out at 100%.
As to `Fc1cccc(F)c1C1=NC(c2ccc(-c3ccc(OCC(F)(F)F)nc3)cc2)CO1` (stereo not shown) [Example 3, 2-(2,6-Difluorophenyl)-4-[4-(2-trifluoroethoxypyridin-5-yl)phenyl]oxazoline], the mortality at 300 ppm with Tetranychus urticae was 90 to 100%; in the data set with Aphis fabae, 90 to 100%; in the data set on Spodoptera litoralis, 90 to 100%; in the data set with Heliothis virescens, 90 to 100%; in data set [1], 100%. Besides, in the data set with Lucilia cuprina, the mortality at 100 ppm was determined as 100%. The mortality at 1000 ppm in the data set with Ctenocephalides felis was 100%.
On to `Fc1ccccc1C1=NC(c2ccc(-c3ccc(OCC(F)(F)F)nc3)cc2)CO1` (stereo not shown) [Example 402, 2-(2-Fluorophenyl)-4-[4-(2-trifluoroethoxypyridin-5-yl)phenyl]oxazoline], for which the melting point came to 101 °C.
For `CCCc1ccc(-c2ccc(C3COC(c4c(F)cccc4F)=N3)cc2)cn1` (stereo not shown) [Example 34, 2-(2,6-Difluorophenyl)-4-[4-(2-n-propylpyridin-5-yl)phenyl]oxazoline], the mortality at 300 ppm with Heliothis virescens fell in the range of 90 to 100%.
On to `CCOc1cc(-c2ccc(OCC(F)(F)F)nc2)ccc1C1COC(c2c(F)cccc2F)=N1` (stereo not shown) [Example 106, 2-(2,6-Difluorophenyl)-4-[2-ethoxy-4-(2-trifluoroethoxypyridin-5-yl)phenyl]-oxazoline], for which the mortality at 300 ppm in the data set on Tetranychus urticae, with Spodoptera litoralis and with Heliothis virescens was 90 to 100% throughout. Further, the mortality at 100 ppm with Lucilia cuprina turned out to be 100%.
For the molecule `CC(C)Oc1ccc(-c2ccc(C3COC(c4c(F)cccc4F)=N3)cc2)cn1` (stereo not shown) [Example 5], in data set [1], the “mortality of the test animals” value came out at 100%. The “mortality in the fly larvae” value in the data set on Lucilia cuprina came to 100%.
In the case of `CC[S+]([O-])c1ccc(-c2ccc(C3COC(c4c(F)cccc4F)=N3)cc2)cn1` (stereo not shown) [Example 40, 2-(2,6-Difluorophenyl)-4-[4-(2-ethylsulfinylpyridin-5-yl)phenyl]oxazoline], the mortality at 300 ppm with Tetranychus urticae and in the data set with Heliothis virescens was 90 to 100% in each case.
For the molecule `CCCOc1ccc(-c2ccc(C3COC(c4c(F)cccc4F)=N3)cc2)cn1` (stereo not shown) [Example 4, 2-(2,6-Difluorophenyl)-4-[4-(2-n-propyloxypyridin-5-yl)phenyl]oxazoline], the mortality at 300 ppm with Tetranychus urticae, in the data set on Aphis fabae, with Spodoptera litoralis and in the data set on Heliothis virescens was 90 to 100% throughout. Besides, the mortality at 100 ppm with Lucilia cuprina is 100%. The mortality at 1000 ppm in the data set with Ctenocephalides felis was 100%.
With `CCOc1ccc(-c2ccc(C3COC(c4c(F)cccc4F)=N3)c(OC)c2)cn1` (stereo not shown) [Example 105], the “mortality in the fly larvae” value in the data set with Lucilia cuprina turned out to be 100%.
Turning to `CCC(C)Oc1ccc(-c2ccc(C3COC(c4c(F)cccc4F)=N3)cc2)cn1` (stereo not shown) [Example 9], in data set [1], the “mortality of the test animals” value is given as 100%.

As usually defined, the mortality is the share of the test organisms that died. Broadly, the melting point is the temperature, or range, at which the solid turns liquid.

(Values after patent US6670307B2, “1,3-oxazoline and 1,3-thiazoline derivatives, their preparation, and their use as pesticides” (Hoechst Schering AgrEvo GmbH, priority 1998, dated 2003).)
